Assay results published in patent US20040126751A1 (priority 2002, published 2004).
“And” between values parts separate entries of the source, which are not always exact repeats. Equal entries are not always repeated.

How the values were obtained:
PC 12 cells = conditions: NADH-supplementation of PC 12 cells; cited from earlier work
cardiomyocytes = assay: HPLC determination of intracellular adenine nucleotide content of cardiomyocytes; assay type: cell-based, guinea pig; conditions: four hours
Experimental: The analytical method used for the determination of adenine nucleotides was that reported in Hallström, S. et al., “S-nitroso human serum albumin treatment reduces ischemia/reperfusion injury in skeletal muscle via nitric oxide release,” Circulation, 105 (2002), 3023-3038 (“Hallström et al.”). In brief, the only alterations from the analytical method reported by Hallström et al. were as follows: separation was performed on a Hypersil ODS column (5 μm, 250 mm×4 mm I.D.) using a Waters™ 717 plus Autosampler, two constaMetric™ III pumps, a gradient controller (LDC/Milton Roy) and a Waters™ 969 photodiode array detector; detector signals (absorbance at 254 nm) were recorded with an AGC™ Personal Computer; and the program Millennium (Waters™) was used for data requisition and analysis. Cardiomyocytes were deproteinized with 250 μL of 0.4 M/L perchloric acid. After centrifugation (12,000 g), 200 μL of the acid extract were neutralized with 12.5 μL of 2 M potassium carbonate (4° C.). The supernatant (10 μL) obtained after centrifugation was used for High Performance Liquid Chromatography (HPLC) analysis. The pellets of the acid extract were dissolved in 1 mL of 0.1 M sodium hydroxide and further diluted 1:10 with physiologic saline for protein determination (BCA Protein Assay, Pierce). The percentage of living cells was estimated by determining the ratio of the number of rod shaped to rounded myocytes. At least 600 myocytes were counted for each preparation.
(§1) Statistical significance was determined by a two-tailed Student's t-test or, if more than two conditions were compared, by one-way analysis of variance (ANOVA) with the LSD (least significant difference) post hoc test. Differences were considered significant when P<0.05.

rat striatal slices = conditions: cited from earlier work
[1] = tested on: ATP-dependent potassium current (IK(ATP)); assay: whole-cell patch-clamp of pinacidil-primed IK(ATP) in isolated ventricular myocytes; assay type: cell-based, guinea pig; conditions: for outward current density at +30 mV under control conditions: before pinacidil
Description: The electrophysiological properties of a cardiac myocyte are strongly affected by its energetic condition. Particularly, the adenosine triphosphate (ATP)-dependent potassium current (IK(ATP)) is known to link bioenergetic metabolism with membrane excitability by sensing intracellular concentrations of ATP and adenosine diphosphate (ADP). Under physiological conditions, ATP-dependent potassium channels (K(ATP)-channels) are predominantly closed due to inhibition by intracellular ATP (ATPi). However, when the ATPi concentration falls below certain values (like in pathological states such as acute myocardial ischaemia), the K(ATP)-channels open. […] Thus, the amount of IK(ATP) activation induced by these drugs serves as an indicator of the intracellular ATP-content.
In this example, guinea pig ventricular myocytes were isolated by Langendorff perfusion using collagenase, as is described in H. M. Piper et al., Culturing of calcium stable adult cardiac myocytes, J. Mol. Cell Cardiol. 14 (1982), pp. 397-412. The isolated myocytes were stored in a cell culture medium M 199 (Sigma™, St. Louis, Mo.), supplemented with 5 μg/ml penicillin and 5 IU/ml of streptomycin and were kept in an incubator at 37° C. All experiments were performed within 24 hours after isolation of the myocytes.
Membrane currents were recorded using the whole-cell single electrode voltage-clamp configuration of the patch-clamp technique (see O. P. Hamill et al., Improved patch-clamp techniques for high-resolution current recording from cells and cell-free membrane patches, Pflüger's Arch. 391 (1981), pp. 85-100) using a List L/M-EPC 7 amplifier (List™, Darmstadt, Germany) as previously described by Pelzmann and coworkers in B. Pelzmann et al., Effects of K^+ channel openers on IK(ATP) of human atrial myocytes at physiological temperatures, Naunyn-Schmiedeberg's Arch. […] Only quiescent rod-shaped cells with clear cross striation were used for voltage-clamp experiments. Cell membrane capacitance (Cm) was determined by integration of the capacitive transient elicited by a 10 mV hyperpolarizing pulse from −50 mV. Cm (up to 100 pF) and series resistance (Rs, by at least 50%) were compensated. Voltage-clamp pulses were generated with an IBM-compatible computer connected to a D/A and A/D converter (Digidata 1200™, Axon Instruments, Foster City, USA). Data acquisition and analyses were performed using pCLAMP 5.7.1 software (Axon Instruments). In order to allow equilibration of the pipette solution with the cytosol, current recordings were started five minutes after rupture of the membrane patch.
Two experimental protocols were used in these examples. Modulation of IK(ATP) by drugs was evaluated as the change of outward current density (current amplitudes divided by Cm (pA/pF) in order to compensate for variations in cell size) at +30 mV in response to a 2 second ramp from −100 to +60 mV (Iramp). Time course of IK(ATP) activation and blockade was studied by recording the holding current at −40 mV (Ihold(−40 mV)). Stock solutions of IK(ATP) channel blocker glibenclamide (Sigma™) and of K(ATP) channel opener pinacidil (Sigma™) were prepared in dimethyl sulfoxide (DMSO). Averaged data are expressed as a mean±standard deviation (or standard error of the mean, SEM), with n=number of cells. Error bars in the figures represent standard deviations (except in FIG. 5).
as §1

[2] = incubation in amounts equimolar to 400 μg/ml NADH

In the case of `NC(=O)C1=CN(C2OC(COP(=O)([O-])OP(=O)([O-])OCC3OC(n4cnc5c(N)ncnc54)C(O)C3O)C(O)C2O)C=CC1.[Na+].[Na+]` (stereo not drawn) [NADH, β-nicotinamide adenine dinucleotide, reduced form, disodium salt], the dopamine production (PC 12 cells) is listed as “increased dopamine production”, the “ATP content in cardiomyocytes” value (cardiomyocytes; 400 mcg per ml cell culture medium, control 35.35±2.57) is listed as 45.59±1.88 nmol/mg protein of living cells and the “ADP content in cardiomyocytes compared to control” value (cardiomyocytes; 400 mcg per ml) is listed as “no significant alteration”. The “AMP content in cardiomyocytes compared to control” value (cardiomyocytes; 400 mcg per ml) was “no significant alteration”, the dopamine release (rat striatal slices) was “increase of dopamine release” and the “outward current density at +30 mV after application of pinacidil” value ([1]; incubation 200 μg/ml, 30 μM pinacidil, 4.3 mM ATPi) was 25.4±3.97 pA/pF. For the same compound, the “outward current density at +30 mV under control conditions” value ([1]; incubation 200 μg/ml, 4-6 hours) was 1.82±0.33 pA/pF, the “outward current density after washout of pinacidil” value ([1]; incubation 300 μg/ml) was 1.09±0.14 pA/pF and the “outward current density at +30 mV under control conditions” value ([1]; incubation 300 μg/ml, 4-6 hours) was 1.72±0.19 pA/pF. The “outward current density at +30 mV under control conditions” value ([1]; incubation 400 μg/ml, 4-6 hours) was 1.70±0.18 pA/pF, the “outward current density after washout of pinacidil” value ([1]; incubation 800 μg/ml) was 1.75±0.48 pA/pF and the “outward current density at +30 mV under control conditions” value ([1]; incubation 800 μg/ml, 4-6 hours) was 1.76±0.36 pA/pF. For the same compound, the “outward current density at +30 mV under control conditions” value ([1]; incubation 1600 μg/ml, 4-6 hours) was 2.53±0.49 pA/pF.
For `NC(=O)c1ccc[n+]([C@@H]2O[C@H](COP(=O)([O-])OP(=O)(O)OC[C@H]3O[C@@H](n4cnc5c(N)ncnc54)[C@H](O)[C@@H]3O)[C@@H](O)[C@H]2O)c1` [NAD^+, β-nicotinamide adenine dinucleotide, oxidized form], the “outward current density after washout of pinacidil” value [1, 2] was 1.44±0.25 pA/pF, the “outward current density at +30 mV after addition of 30 μM pinacidil” value [1, 2] was 29.0±7.01 pA/pF and the “outward current density at +30 mV under control conditions” value [1, 2] was 1.96±0.20 pA/pF.
In the case of `COc1ccc(Cl)cc1C(=O)NCCc1ccc(S(=O)(=O)NC(=O)NC2CCCCC2)cc1` [glibenclamide], the “inhibition of pinacidil-activated IK(ATP)” value ([1]; 1 μM glibenclamide after 30 μM pinacidil) is reported as “completely inhibited” and the “effect on basal Iramp” value ([1]; physiological conditions, 4.3 mM ATPi, data not shown) is reported as “did not affect Iramp”.
For `NC(=O)c1cccnc1` [nicotinamide], the “outward current density after washout of pinacidil” value [1, 2] was 1.13±0.15 pA/pF, the “outward current density at +30 mV after addition of 30 μM pinacidil” value [1, 2] was 30.5±4.83 pA/pF and the “outward current density at +30 mV under control conditions” value [1, 2] was 2.01±0.36 pA/pF.
For `CC(N/C(=N\C#N)Nc1ccncc1)C(C)(C)C` (stereo not drawn) [pinacidil], the “outward current density at +30 mV (Iramp)” value ([1]; 30 μM pinacidil, 1 mM ATPi) was 52.2±13.8 pA/pF, the “outward current density at +30 mV (Iramp)” value ([1]; 30 μM pinacidil, 4.3 mM ATPi, control myocytes) was 28.9±3.38 pA/pF and 28.3±3.26 pA/pF and the “outward current density at +30 mV after washout” value ([1]; after washout of 30 μM pinacidil (5 minutes), control myocytes) was 1.81±0.22 pA/pF and 1.81±0.21 pA/pF.
